The values below come from US20230235077A1, “MATERIALS AND METHODS OF TREATING CANCER” (THE GENERAL HOSPITAL CORPORATION, priority 2020, published 2023).

Assay [1] has as its system D4M.3A syngeneic tumors. The assay can be described thus: D4M.3A syngeneic tumor efficacy study: (S)-mepazine PO 5 days on/5 days off or QD with anti-PD1 (Example 7). Type of assay: in vivo. Particulars: male C57BL/6 mice; (S)-mepazine PO 5 days on and 5 days off versus each day; with anti-PD1 200 μg at days 0, 2, 4; FIG. 4. The procedure: Male C57BL/6 mice were implanted subcutaneously with D4M.3A syngeneic tumors. The mice were dosed with (S)-mepazine PO and with anti-PD1 mouse clone 29F.1A12 dosed 3 times 200 μg/dose at days 0, 2, and 4 of a treatment cycle. The mice were dosed 5 days on with (S)-mepazine and 5 days off (a dose holiday) (5+5) or each day with (S)-mepazine (QD) PO. Tumor volume was measured each day.

The test system of assay [2] is D4M.3A syngeneic tumors. In words: D4M.3A syngeneic tumor efficacy study: (S)-mepazine IP ×3, ×7 or QD with anti-PD1 (Example 6). It is filed as in vivo, C57BL/6 mice. Here is the method: Male C57BL/6 mice were implanted subcutaneously with D4M.3A syngeneic tumors. The mice were dosed with (S)-mepazine IP and with anti-PD1 mouse clone 29F.1A12 dosed 3 times 200 μg/dose at days 0, 2, and 4 of a treatment cycle. A ×3 arm of mice were dosed at days 0, 1, and 3 of a 21 day treatment cycle with (S)-mepazine IP. A ×7 arm of mice were dosed at days 0-6 of a 21 day treatment cycle with (S)-mepazine IP. A QD arm of mice were dosed daily with (S)-mepazine IP. Tumor volume was measured each day. The results of the study are shown in FIGS. 2 and 3, for ×3 arm and ×7 arm, respectively.

The subject of assay [3] is D4M.3A melanoma cells. The assay can be described thus: D4M.3A melanoma in mice: interval versus continuous mepazine with anti-PD-1 (Example 1). Type of assay: in vivo. Conditions: female C57BL/6 mice; mepazine 16 mg/kg i.p. daily on days 7-10 only versus continuously to day 19; with anti-PD-1 mAb 200 μg i.p. daily; FIG. 1. The procedure:
Female C57BL/6 mice were implanted subcutaneously with 10^6 D4M.3A melanoma cells. Starting 7 days later (arrow), animals were treated with daily i.p. injections of 200 μg of anti-PD-1 mAbs (clone 29F.1A12) or isotype control mAb (rat IgG2a). Some animals in addition received daily i.p. injections of 16 mg/kg bodyweight of the allosteric MALT-1 inhibitor mepazine, either for the first 4 days (days 7-10) only, or continuously until the end of the experiment on day 19. Tumor size was measured using a caliper every 2-3 days. n=4/group. *=p<0.05 versus Ctrl.

Regarding `CN1CCC[C@H](CN2c3ccccc3Sc3ccccc32)C1` [(S)-mepazine], in assay [1], the “Tumor volume, 5+5 dosing versus QD dosing” value is recorded as “equivalent to a QD dosing schedule”. For the same compound, the “Tumor control of ×3 and ×7 arms versus QD dosing arm” value in assay [2] ((S)-mepazine IP with anti-PD1, up to 7 days after (S)-mepazine was dosed) is “comparable to the QD dosing arm”. In assay [2] (male C57BL/6 mice, (S)-mepazine IP on days 0, 1 and 3 of 21 day cycle, with anti-PD1 200 μg at days 0, 2, 4, FIG. 2), the “Tumor volume, activity against the tumor compared to anti-PD1 alone, ×3 arm” value is “improved activity against the tumor compared to anti-PD1 alone”. For the same compound, the “Tumor volume, activity against the tumor compared to anti-PD1 alone, ×7 arm” value in assay [2] (male C57BL/6 mice, (S)-mepazine IP on days 0-6 of 21 day cycle, with anti-PD1 200 μg at days 0, 2, 4, FIG. 3) was “improved activity against the tumor compared to anti-PD1 alone”. In assay [2] (×3 and ×7 arms, (S)-mepazine IP with anti-PD1, male C57BL/6 mice), the “Duration of efficacy for tumor control after (S)-mepazine was dosed” value was “up to 7 days”.
As for `CN1CCCC(CN2c3ccccc3Sc3ccccc32)C1` (racemic) [mepazine], the “Tumor size, interval versus continuous treatment” value in assay [3] is listed as “at least as effective as continuous treatment”.
